{"source": "patent US20240090505A1", "about": "“MULTI-SOLVENT PESTICIDAL COMPOSITIONS INCLUDING SULFOXIMINE” (CLARKE MOSQUITO CONTROL PRODUCTS, INC., priority 2020, published 2024)", "system": "Culex sp. mosquitos", "assay": "Laboratory test of samples with and without surfactant (Pluronic L92), knockdown and mortality", "assay_type": "in vivo", "details": "propylene carbonate:tributyl O-acetylcitrate 1:1", "experimental": "Various amounts of different surfactants were evaluated to determine possible impacts on efficacy. In one set of trials, different amounts of sulfoxaflor were tested with and without a surfactant (Pluronic L92 from BASF)."}
{"smiles": "CC(c1ccc(C(F)(F)F)nc1)S(C)(=O)=NC#N", "note": "(stereo not drawn) [Sulfoxaflor, sulfoxaflor]", "values": [{"measurement": "1-hour knockdown", "setting": "0.5 wt% sulfoxaflor, 20 wt% surfactant (Pluronic L92)", "value": 2, "unit": "%"}, {"measurement": "1-hour knockdown", "setting": "0.5 wt% sulfoxaflor, no surfactant", "value": 0, "unit": "%"}, {"measurement": "1-hour knockdown", "setting": "1 wt% sulfoxaflor, no surfactant", "value": 18, "unit": "%"}]}
